# Assay results published in PMC5740381 (Antimicrobial Agents and Chemotherapy, 2017).
# Key:
# [1] = tested on: HCV subgenomic stable replicon GT2b; test: Stable HCV replicon luciferase assay in Huh-7 cells; type: cell-based; conditions: Hepatitis C virus, 0% human plasma, read-out: Mean EC50 ± SD
# Description: (§1) Five of these nine cell lines have been described previously, including those transfected with genotypes 1a H77, 1b Con1, 3a, 4a, and 6a ([28]). […] The genotype 2b and 6e NS3 sequences were each synthetically constructed based on a consensus sequence derived from the alignment of 15 genotype 2b and 4 genotype 6e sequences, respectively. All replicon constructs were bicistronic subgenomic replicons similar to those described by Bartenschlager and coworkers, and the replicon cell lines were generated by introducing these constructs into cells of an Huh-7 human hepatoma-derived cell line ([50]). The inhibitory effect of the PIs on HCV replication in replicon cells was determined in Dulbecco's modified Eagle medium containing 5% fetal bovine serum with or without 40% human plasma (Bioreclamation, Westbury, NY). The EC50s were determined using nonlinear regression curve fitting as described previously ([33]).
# [2] = target: HCV NS3/4A protease GT1b (Hepatitis C virus genotype 1b, UniProt Q9WPH5); test: HCV NS3/4A protease biochemical assay; conditions: 30 min preincubation, read-out: Mean IC50 ± SD
# Description: (§2) . […] Genes encoding NS3/4A were derived from laboratory strains 1a-H77 (GenBank accession number NC_004102) and 1b-N (GenBank accession number AF139594) or from clinical samples from patients infected with genotype 2a, 2b, 3a, or 4a. All patients provided written informed consent. Clinical studies were designed according to Good Clinical Practice guidelines, the Declaration of Helsinki, and applicable local regulations, with independent ethics committee or institutional review board approval for all study sites. The genotype 5a NS3/4A gene sequence was synthetically constructed based on the sequence of the clinical isolate SA13 (GenBank accession number AF064490) ([48]), whereas the genotype 6a NS3/4A gene sequence was synthetically constructed based on a consensus sequence derived from the alignment of 15 genotype 6a sequences available in GenBank. The NS3/4A genes were each cloned into the protein expression vector pET14b (Novagen, Madison, WI), and a clone with an NS3/4A protease sequence that matched the consensus sequence for each sample was subsequently selected for protein expression and purification. Protease activity was measured by continuous monitoring of the fluorescence change associated with the cleavage of a fluorogenic depsipeptide (EDANS/DABCYL) substrate using a purified recombinant HCV NS3/4A protease as described previously ([49]). […]
# [3] = target: HCV NS3/4A protease GT6a (Hepatitis C virus genotype 6a, UniProt O39927); test: HCV NS3/4A protease biochemical assay; conditions: 30 min preincubation, read-out: Mean IC50 ± SD
# Description: as §2
# [4] = target: HCV NS3/4A protease GT2b (Hepatitis C virus genotype 2b, UniProt P26661); test: HCV NS3/4A protease biochemical assay; conditions: 30 min preincubation, read-out: Mean IC50 ± SD
# Description: as §2
# [5] = tested on: HCV genotype 2a replicon cells; test: Drug-resistant colony selection in replicon cells; type: cell-based, Hepatitis C virus
# Description: (§3) . After approximately 3 weeks of treatment, the surviving replicon colonies in one plate for each selection condition were stained with crystal violet and counted, whereas approximately 20 to 30 colonies in a replicate plate or most of the colonies, if less than 20 colonies survived the selection, were picked and further expanded for genotyping. The expanded colonies were lysed in CellsDirect lysis buffer (Invitrogen, MA), and the NS3-coding region from each colony was amplified by reverse transcription-PCR and sequenced. For genotype 1a, 1b, 2a, and 5a colonies, the full-length NS3 sequence was determined, whereas for colonies of the chimeric replicon containing the N-terminal region of NS3 from genotype 2b, 3a, 4a, or 6a, the sequence encoding the NS3 N-terminal region was determined. We defined a substitution in a replicon to be an amino acid difference in a sequence from a posttreatment sample relative to the sequence of the corresponding untreated sample. For resistance selection studies, NS3 substitutions detected at the following amino acid positions associated with resistance to the HCV PI class in >2 colonies in each replicon selection are reported: 36, 43, 54, 55, 56, 80, 122, 155, 156, and 168. In addition, substitutions detected at other amino acid positions in the NS3 protease domain in >2 colonies in each replicon selection are also reported.
# [6] = tested on: HCV genotype 2b replicon cells; test: Drug-resistant colony selection in replicon cells; type: cell-based, Hepatitis C virus
# Description: as §3
# [7] = tested on: HCV genotype 3a replicon cells; test: Drug-resistant colony selection in replicon cells; type: cell-based, Hepatitis C virus
# Description: as §3
# [8] = tested on: HCV genotype 4a replicon cells; test: Drug-resistant colony selection in replicon cells; type: cell-based, Hepatitis C virus
# Description: as §3
# [9] = tested on: HCV genotype 5a replicon cells; test: Drug-resistant colony selection in replicon cells; type: cell-based, Hepatitis C virus
# Description: as §3
# [10] = tested on: HCV genotype 6a replicon cells; test: Drug-resistant colony selection in replicon cells; type: cell-based, Hepatitis C virus
# Description: as §3
# [11] = tested on: HCV subgenomic stable replicon GT2a JFH-1; type: cell-based, Hepatitis C virus; conditions: GT2a JFH-1 stable replicon, 0% human plasma; read-out: Mean EC50 ± SD
# Description: as §1
# [12] = tested on: HCV subgenomic stable replicon GT1b Con1; type: cell-based, Hepatitis C virus; conditions: 0% human plasma, read-out: Mean EC50 ± SD
# Description: as §1
# [13] = tested on: HCV subgenomic stable replicon GT1a H77; type: cell-based, Hepatitis C virus; conditions: 0% human plasma, read-out: Mean EC50 ± SD
# Description: as §1
Structure (SMILES),EC50 [1] [nM],IC50 [2] [nM],IC50 [3] [nM],IC50 [4] [nM],Colony survival ([5]; 10× EC50) [%],Colony survival ([5]; 100× EC50) [%],Colony survival ([6]; 10× EC50) [%],Colony survival ([6]; 100× EC50) [%],"Colony survival ([7]; 10× EC50, 1 × 10^4 input cells) [%]",Colony survival ([7]; 100× EC50) [%],Colony survival ([8]; 10× EC50) [%],Colony survival ([8]; 100× EC50) [%],Colony survival ([9]; 10× EC50) [%],Colony survival ([9]; 100× EC50) [%],Colony survival ([10]; 10× EC50) [%],Colony survival ([10]; 100× EC50) [%],EC50 [11] [nM],EC50 [12] [nM],EC50 [13] [nM]
"CC(C)(C)[C@@H]1NC(=O)O[C@@H]2CCC[C@H]2OC/C=C/C(F)(F)c2nc3ccccc3nc2O[C@@H]2C[C@@H](C(=O)N[C@]3(C(=O)NS(=O)(=O)C4(C)CC4)C[C@H]3C(F)F)N(C2)C1=O [Glecaprevir, (3aR,7S,10S,12R,21E,24aR)-7-tert-butyl-N-[(1R,2R)-2-(difluoromethyl)-1-{[(1-methylcyclopropyl)sulfonyl]carbamoyl}cyclopropyl]-20,20-difluoro-5,8-dioxo-2,3,3a,5,6,7,8,11,12,20,23,24a-dodecahydro-1H,10H-9,12-methanocyclopenta[18,19][1,10,17,3,6]trioxadiazacyclononadecino[11,12-b]quinoxaline-10-carboxamide]",4.6 ± 1.2,8.9 ± 1.6,11.3 ± 1.8,3.8 ± 0.96,>0.05,>0.05,>0.05,>0.05,0.1,0.0003,0.0015,0.0018,0.001,0,0.018,0,–,–,–
C=C[C@@H]1C[C@]1(NC(=O)[C@@H]1C[C@@H]2CN1C(=O)[C@H](C(C)(C)C)NC(=O)O[C@@H]1C[C@H]1CCCCCc1nc3ccc(OC)cc3nc1O2)C(=O)NS(=O)(=O)C1CC1 [Grazoprevir],–,–,–,–,–,–,–,–,–,–,–,–,–,–,–,–,8.6 ± 3,1 ± 0.17,0.37 ± 0.05
Cc1cnc(C(=O)N[C@H]2CCCCC/C=C\[C@@H]3C[C@@]3(C(=O)NS(=O)(=O)C3CC3)NC(=O)[C@@H]3C[C@@H](Oc4nc5ccccc5c5ccccc45)CN3C2=O)cn1 [Paritaprevir],107 ± 17,–,–,–,–,–,–,–,–,–,–,–,–,–,–,–,–,–,–
